Molecules are shown by their SMILES.

This note sets out measurements from patent publication US20140094465A1, “Compounds as S-Nitrosoglutathione Reductase Inhibitors” (N30 PHARMACEUTICALS, INC., priority 2011, published 2014).

T1 sequence (P11766 whole entry): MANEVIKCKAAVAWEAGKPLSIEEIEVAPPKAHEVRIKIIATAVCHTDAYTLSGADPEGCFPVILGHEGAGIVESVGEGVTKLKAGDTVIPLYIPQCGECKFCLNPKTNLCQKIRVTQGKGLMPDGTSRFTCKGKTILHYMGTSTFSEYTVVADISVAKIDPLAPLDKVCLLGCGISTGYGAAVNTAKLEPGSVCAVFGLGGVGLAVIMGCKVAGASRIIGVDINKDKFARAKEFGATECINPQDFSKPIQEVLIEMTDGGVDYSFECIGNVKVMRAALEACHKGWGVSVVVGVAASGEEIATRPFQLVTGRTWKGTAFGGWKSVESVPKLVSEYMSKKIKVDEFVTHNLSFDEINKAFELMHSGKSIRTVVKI

The first assay has as its target T1, S-nitrosoglutathione reductase (GSNOR) (Homo sapiens, UniProt P11766).
T1 construct: made in house; host or cells: E. coli
Briefly: GSNOR assay (inhibition of GSNOR activity, NADH absorbance at 340 nm). The settings on record: GSNOR inhibitor activity, Tables 1-6; read-out: IC50 range. Type of assay: biochemical. Put shortly:
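Recombinant GSNOR purified from E. coli, tag removed. Final conditions: 100 mM NaPO4 pH 7.4, 0.240 mM GSNO, 0.300 mM NADH, 0.5 μg/mL enzyme, 1% DMSO; NADH loss followed as 340 nm absorbance change over 3 min at 25 °C. Compounds 100–0.003 μM, triplicate; IC50 by curve analysis.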
A word on the IC50: it is the point on the concentration scale where inhibition reaches its midpoint. For `O=c1c(-c2ccc(O)c([N+](=O)[O-])c2)c(C(F)(F)F)oc2cc(O)ccc12` [IV-45, 7-hydroxy-3-(4-hydroxy-3-nitrophenyl)-2-(trifluoromethyl)-4H-chromen-4-one], the IC50 is below 100 nM. With `O=c1c(Oc2ccc(O)c([N+](=O)[O-])c2)c(C(F)(F)F)oc2cc(O)ccc12` [Compound V-17, 7-hydroxy-3-(4-hydroxy-3-nitrophenoxy)-2-(trifluoromethyl)-4H-chromen-4-one], the IC50 lay in the range of 100 to 1000 nM. For `O=C(O)c1ccc(-c2ccc3cc(O)ccc3n2)c(C(F)(F)F)c1` [Compound I-30], the IC50 is below 100 nM. Turning to `Oc1ccc2nc(-c3ccc(-c4nn[nH]n4)cc3)c(C(F)(F)F)nc2c1` [II-10], the concentration for half-maximal inhibition (IC50) was below 100 nM. Consider `CC(C)c1oc2cc(O)ccc2c(=O)c1Oc1ccc(C(=O)O)cc1` [Compound V-3, 4-(7-hydroxy-2-isopropyl-4-oxo-4H-chromen-3-yloxy)benzoic acid], for which the half-maximal inhibitory concentration (IC50) was in the range of 1000 to 10000 nM.

As for `O=C(O)c1ccc(CC(=O)c2ccc(O)c(F)c2F)c(F)c1` [VI-3, 4-(2-(2,3-difluoro-4-hydroxyphenyl)-2-oxoethyl)-3-fluorobenzoic acid], the IC50 is below 100 nM.

As to `O=C(NO)c1ccc(-c2c(C(F)(F)F)oc3cc(O)ccc3c2=O)cc1` [IV-37], the concentration for half-maximal inhibition (IC50) was 100 to 1000 nM.

Take `O=C(O)c1ccc(Oc2c(-c3ccc(O)cc3)oc3cc(O)ccc3c2=O)cc1` [Compound V-10, 4-(7-hydroxy-2-(4-hydroxyphenyl)-4-oxo-4H-chromen-3-yloxy)benzoic acid]: the IC50 is 1000 to 10000 nM.

Consider `Oc1ccc2nc(C(F)(F)F)c(-c3ccc(-c4nnn[nH]4)cc3)nc2c1` [II-16], for which the 50% inhibitory concentration (IC50) was in the range of 100 to 1000 nM. Take `O=C(O)c1ccc(Nc2c(C(F)(F)F)oc3cc(O)ccc3c2=O)cc1` [Compound V-15, 4-(7-hydroxy-4-oxo-2-(trifluoromethyl)-4H-chromen-3-ylamino)benzoic acid]: the IC50 lay within 1000 to 10000 nM.

On to `CN(C)c1cc(C(=O)O)ccc1-c1ccc2cc(O)ccc2n1` [Compound I-25], for which the IC50 is below 100 nM. For `O=C(O)c1ccc(-c2ccc3cc(O)ccc3n2)c(Cl)c1` [Compound I-8, 3-chloro-4-(6-hydroxyquinolin-2-yl)benzoic acid], the IC50 was below 100 nM. On the same count and under the same terms, the same measure for `O=C(O)c1ccc(-c2cc(F)c3cc(O)ccc3n2)c(F)c1` [Compound I-40, 3-fluoro-4-(4-fluoro-6-hydroxyquinolin-2-yl)benzoic acid]: below 100 nM; for `O=c1c(Oc2ccc(-c3nnn[nH]3)cc2)c(C(F)(F)F)oc2cc(O)ccc12` [Compound V-6, 3-(4-(1H-tetrazol-5-yl)phenoxy)-7-hydroxy-2-(trifluoromethyl)-4H-chromen-4-one]: 1000 to 10000 nM. Regarding `O=C(O)[C@H]1CC[C@H](c2nc3ccc(O)cc3cc2C(F)(F)F)CC1` [Compound I-43], the IC50 is below 100 nM. Turning to `Cc1cc2cc(O)ccc2nc1-c1ccc(-c2nnn[nH]2)cc1` [Compound I-2], the half-maximal inhibitory concentration (IC50) was below 100 nM.

Staying with this assay, now noted: Table 7; GSNOR inhibition, IC50 range class a/b/c; read-out: IC50.
As for `O=C(O)c1ccc(-c2ccc(-c3ccc(O)cc3)cc2)s1` [VII-21, 5-(4′-hydroxy-[1,1′-biphenyl]-4-yl)thiophene-2-carboxylic acid], the IC50 is 100 to 1000 nM. For `CC(C)CCCn1c(-c2ccc(O)cc2)ccc1-c1ccc(C(=O)O)cc1` [VII-30, 4-(5-(4-hydroxyphenyl)-1-(4-methylpentyl)-1H-pyrrol-2-yl)benzoic acid], the half-maximal inhibitory concentration (IC50) is below 100 nM. `O=C(O)c1ccc(-c2nc(-c3ccc(O)cc3)cs2)cc1` [VII-1, 4-(4-(4-hydroxyphenyl)thiazol-2-yl)benzoic acid]: the IC50 lay within 1000 to 10000 nM. As to `CC(C)Cn1c(-c2ccc(O)cc2)ccc1-c1ccc(C(=O)O)cc1` [VII-29, 4-(5-(4-hydroxyphenyl)-1-isobutyl-1H-pyrrol-2-yl)benzoic acid], the concentration for half-maximal inhibition (IC50) was below 100 nM. Regarding `CCCn1c(-c2ccc(O)cc2)ccc1-c1ccc(C(=O)O)cc1` [VII-37, 4-(5-(4-hydroxyphenyl)-1-propyl-1H-pyrrol-2-yl)benzoic acid], the IC50 is below 100 nM. On to `O=C(O)c1ccc(-c2ccc(-c3ccc(O)cc3)s2)s1` [VII-12, 5′-(4-hydroxyphenyl)-2,2′-bithiophene-5-carboxylic acid], for which the concentration for half-maximal inhibition (IC50) is 100 to 1000 nM.

The same assay, now with this note: Table 8; GSNOR inhibition, IC50 range class a/b/c; read-out: IC50.
Take `O=C(O)c1ccc(N2CCc3cc(O)ccc3C2)cc1` [VIII-6, 4-(6-hydroxy-3,4-dihydroisoquinolin-2(1H)-yl)benzoic acid]: the 50% inhibitory concentration (IC50) lay in the range of 1000 to 10000 nM.

On to `O=C(O)c1ccc(-c2cc(=O)c3cc(O)ccc3[nH]2)c(Cl)c1` [VIII-9, 3-chloro-4-(6-hydroxy-4-oxo-1,4-dihydroquinolin-2-yl)benzoic acid], for which the IC50 lay within 1000 to 10000 nM.

For a further assay, the system named is dextran sodium sulfate (DSS)-induced IBD. Briefly: Acute prophylactic model of DSS-induced IBD. As to conditions: oral 10 mg/kg/day for 10 days, prophylactic. Type of assay: in vivo, mouse. An excerpt:
Acute and chronic models of dextran sodium sulfate (DSS)-induced IBD in mice were used to explore efficacy of GSNORi against this disease. Acute and chronic DSS-induced IBD are widely used and well characterized models that induce pathological changes in the colon similar to those observed in the human disease. In these models and in human disease, epithelial cells within the crypts of the colon are disrupted, leading to dysfunction of the epithelial barrier and the ensuing tissue inflammation, edema, and ulceration. GSNORi therapy may benefit IBD by restoring s-nitrosoglutathione (GSNO) levels, and thus prevent or reverse the epithelial barrier dysfunction. Experimental IBD was induced by administration of DSS in the drinking water of male C57Bl/6 mice (N=8 to 10 mice per group) for 6 consecutive days. GSNORi was dosed orally at doses of 0.1 to 10 mg/kg/day for 10 days starting two days prior to and continuing two days post DSS exposure. […] Levels of circulating cytokines involved in inflammatory pathways were also assessed. The effect of GSNORi was compared to vehicle treated controls. […] Naïve mice (N=5) were also assessed as a normal tissue control.
As to `O=C(O)c1ccc(-c2ccc3cc(O)ccc3n2)c(Cl)c1` [Compound I-8, 3-chloro-4-(6-hydroxyquinolin-2-yl)benzoic acid], the “decrease of percent of mice with severe colon injury scores via endoscopy” value is given as 44 % of vehicle control and the “decrease of percent of mice with severe colon injury scores via histopathology” value is listed as 26 % of vehicle control.

Another assay concerns cigarette smoke-induced COPD. Nature of the assay: Subchronic (11 day) cigarette smoke exposure COPD model. The format is in vivo, mouse. The settings on record: subchronic 11 day model, 1, 5, or 10 mg/kg/day. On the procedure: Infiltration of inflammatory cells into the bronchoalveolar lavage fluid (BALF) and BALF levels of chemokines involved in inflammation and tissue turnover/repair were measured to assess the influences of GSNOR inhibitors on some of the early events associated with the initiation and progression of COPD. […] In animal models, changes in lung pathology are only evident after extended (several months) duration of exposure to cigarette smoke, thus making chronic models prohibitive as effective screening tools. […] The key roles of inflammation in the initiation and progression of COPD, make these short duration models relevant for initial tests of efficacy of novel therapeutics. Female C57Bl/6 mice (N=10 per group) were exposed to cigarette smoke generated from Marlboro 100 cigarettes without filters. Exposure times were 25 min. on study day 1, 35 min. on study day 2, and 45 min. on study days 3 to 11. GSNOR inhibitors were administered one hour prior to smoke exposure on each day. GSNOR inhibitors were dosed orally at 1 to 10 mg/kg/day for 11 days. […] The effect of GSNOR inhibitors were compared to vehicle treated controls and expressed as percent inhibition of the cigarette smoke induced increases in BALF cell numbers. Roflumilast was used as the positive control for the study and was dosed at 5 mg/kg/day. A group of naïve mice (N=10) was exposed to air and dosed with vehicle as a negative control for the study.
As to `O=C(O)c1ccc(-c2ccc3cc(O)ccc3n2)c(Cl)c1` [Compound I-8, 3-chloro-4-(6-hydroxyquinolin-2-yl)benzoic acid], the “dose response of effect” value is “no dose response of effect”.

Still in this assay, the particulars now being: subchronic 11 day model; roflumilast 5 mg/kg/day.
With `O=C(O)c1ccc(-c2ccc3cc(O)ccc3n2)c(Cl)c1` [Compound I-8, 3-chloro-4-(6-hydroxyquinolin-2-yl)benzoic acid], the “effects compared with roflumilast” value was “comparable to those of roflumilast”.
